From paper PMC4398458, “Reversible Linkage of Two Distinct Small Molecule Inhibitors of Myc Generates a Dimeric Inhibitor with Improved Potency That Is Active in Myc Over-Expressing Cancer Cell Lines” (PLoS ONE, 2015) come the findings set out here.

For series [1], the target named is T1, His-tagged bHLH-LZ domain of human Myc protein (aa353-439) (Homo sapiens, UniProt P01106).
T1 construct: human Myc protein (aa353-439, Cayman Chemicals, Ann Arbor, MI); purchased Cayman Chemicals
In words: Surface Plasmon Resonance binding to immobilized Myc. Conditions: average KD, equilibrium fit, 25°C; combinations as equimolar titrations; read-out: SPR (Kd), direct MYC binding. As for the experimental part: All SPR experiments were performed on a Bio-Rad XPR36 instrument at 25°C. His-tagged bHLH-LZ domain of human Myc protein (aa353-439, Cayman Chemicals, Ann Arbor, MI) was immobilized in running buffer (20 mM Na-phosphate, pH 7.5, 300 mM NaCl, 4 mM KCl,. 05% Tween20) in the absence of DMSO at 25μL/min for 400 seconds on Bio-Rad HTE (Ni-NTA) chips with a resulting RU value of about 4500 after immobilization. Compound binding was analyzed in the same running buffer with a final DMSO concentration of 2%. Compounds were injected at 30μL/min for 180 seconds with a dissociation time of 300 seconds. Injections consisted of 5 concentrations of compounds plus a blank channel for reference that flowed over all immobilized ligands in a matrix format. Regeneration steps were not required due to the rapid dissociation of compounds. Equilibrium fits were performed with the ProteOn software after inter-spot and reference channel subtractions.
We next analyzed whether these dimeric inhibitors could directly bind to Myc. To do this we developed a Surface Plasma Resonance (SPR) assay to compare the binding affinities of the monomers to that of the dimeric inhibitors. We immobilized the bHLHZip domain of Myc to the surface of a Ni-NTA chip via a His-tag and measured binding affinities for the monomers or dimers. […] We observed similar data with the E08+N11 dimer.

Series [2] has as its target T2, Myc:Max interaction (Homo sapiens, UniProt P01106).
T2 construct: purchased Origene (Myc); Sino Biologicals (Max)
Kind of series: Cell-free Myc:Max ELISA. Type of series: biochemical. As to conditions: average with standard deviation; combinations as equimolar (1:1) titrations, concentration of each monomer; read-out: ELISA (IC50), inhibition of cell-free MYC-MAX heterodimer formation. The method, then: High binding 96-well plates were coated with GST-conjugated full-length Max protein (Sino Biologicals) at 1ng/μL in 100μl of PBS overnight at 4°C. The plate was washed 4x 200 μl/well with PBS and blocked in 200 μl/well of 5% nonfat dry milk in PBS for 2 hours at room temperature. […] Compounds were serially diluted in 100% DMSO and then sequentially diluted […] into the Myc solution before incubation for one hour at room temperature. For internal consistency, final DMSO concentrations were kept at 2%. The blocked plate was washed 4x 200μl/well with Buffer A, before addition of 100 μl of the Myc compound mixture. Plates were incubated for four hours at RT, and washed 4x 200 μl Buffer A/well. Anti-Myc antibody (Cell Signaling) was diluted 1:1000 in 5% nonfat dry milk in Buffer A. 100 μL/well diluted primary antibody was added to each well and incubated for one hour at room temperature. Plates were washed 4x 200 μl/well Buffer A. HRP-conjugated goat anti-rabbit antibody (GE Healthcare) was diluted 1:5000 in 5% nonfat dry milk in Buffer A. 100 μL/well diluted secondary antibody was added to each well and incubated for thirty minutes at room temperature. The plates were washed 4x 200 μL/well Buffer A. 50 μL/well of FEMTO chemiluminescent reagent (Thermo Scientific) was added, and luminescence was immediately read on a Victor X5 plate reader (PerkinElmer) with a 0.1 sec integration time. IC50s were generated through non-linear fitting of data with prism (GraphPad).
We next asked whether the binding of these dimers to Myc could disrupt the interaction with its transcriptional partner Max. We developed an ELISA using purified Myc and Max protein that allowed us to measure effects on Myc:Max binding. The ELISA plate was initially coated with Max protein and the compounds pre-incubated with Myc protein prior to addition to the Max-coated plate. After extensive washing, Myc binding to Max was detected using an anti-Myc antibody. […] We observe similar effects for the dimeric inhibitor E08+N11 (Table 1).

Series [3] relates to Daudi cells. Kind of series: Cell proliferation / viability assay and Bliss synergy analysis. Type of series: cell-based. As to conditions: concentrations up to 30 μM, 3 days. As for the experimental part: K562 (CCL-243), Daudi (CCL-213), Raji (CCL-86) and MV4-11(CCL-9591) cells were purchased directly from American Type Culture Collection (Manassas, VA) and routinely cultured under recommended conditions. Growth and proliferation was determined by use of Cell Titer 96 Aqueous One Solution (Promega, Madison, WI). All cells were plated at 10,000 cells per well in growth media in a clear 96 well plate. After 3 days of compound treatment reagent was added, and absorbance at 490 nm was read after incubation for 4 hours at 37°C. A control plate of compound diluted in media at the same concentrations was treated in a similar way and these values subtracted from the cell plate data to control for any compound interference in the assay. Synergy was determined using the Bliss model of independence.
We screened pairwise combinations of monomers from our libraries in a cell proliferation assay. Increasing concentrations of each compound were dosed in an 8x6 matrix format and their effects on cell proliferation monitored. […] The majority of the combinations were additive in nature, a result consistent with the combination of the two parent ligands C01 and C02 (S1 Fig.). We identified a number of combinations that were synergistic, and representative graphs showing dose dependent inhibition of proliferation with 2 different combinations (E07+N12 and E08+N11) are shown (Fig. 2 A and B). There was no activity of the individual compounds E07, E08, N12, or N11 in the proliferation assay at concentrations up to 30 μM.
Our cell-free experiments had clearly shown that the ability for self-assembly of the dimer was important in driving the improved inhibitory effect versus the Myc protein. To test this in a cellular context we compared the effect on cell viability of the E08+N11 dimer versus its non-dimerizable control combination E08+C11. […] Similar effects on cell viability and Myc protein levels were also observed for the dimer E07+N12 but not its non-dimerizable control E07+C12 (S5 Fig.).

The target in series [4] is T3, Myc:Max heterodimers in complex with E-box DNA (Homo sapiens, UniProt P01106).
T3 construct: c-Myc residues Asn352 to Ala439; 6xHis (N); TEV cleavage site (N); purchased Cayman Chemical (Myc, custom expression); Sino Biologicals (Max) #12885-H20B (Max); host or cells: E. coli BL21StarDE3 (Myc)
In words: Electrophoretic mobility shift assay (EMSA), Myc:Max heterodimer binding to DNA. Type of series: biochemical. Conditions: cell-free EMSA, E-box oligonucleotide. As for the experimental part: Human c-Myc (NP_002458.2) containing the bHLH-LZ domain was cloned into a modified pET21a vector and then transformed into the BL21StarDE3 expression system, expressed, and purified at Cayman Chemical. The construct consists of an N-terminal 6xHis tag with a TEV cleavage site, c-Myc residues Asn352 to Ala439, and a GGCD C-terminal extension (molecular weight 12.9 kDa). Compounds were added to 200 ng c-Myc in reaction buffer (100 mM KCL, 1 mM DTT, 1 mM EDTA, 50 mM Tris pH7.4, 5mM MgCl2, 0.002% NP40) and incubated for 60 minutes at room temperature. […] Finally, annealed double-stranded E-box containing DNA oligonucleotide with sequence 5’-[…]-3’ was added to a final concentration of 100 nM for twenty minutes incubation at room temperature. The final concentration of DMSO was kept constant at 2%. The protein-DNA complexes (final volume 10 μl) were resolved on NativePAGE Novex 4–16% Bis-Tris Protein Gels (Life technologies, #BN1002BOX) at 4°C with pre-chilled TBE (89 mM Tris-borate, 1 mM EDTA) at 125V for 90 minutes. SYBR Green EMSA Nucleotide Acid gel stain (Molecular Probes, #E33075) was used to stain dsDNA and DNA-protein complexes. Images were captured with an Alpha Innotech FluorChem Q imager installed with AlphaView software.
The formation of the Myc:Max heterodimer is required for its ability to bind to DNA sequences and trigger transcriptional activation of Myc-dependent genes. […]
Background: Mobility shift assays separate free from complexed probe on a gel.

In series [5] the target is T4, Max:Max homodimers in complex with E-box DNA (Homo sapiens, UniProt P61244).
T4 construct: His-tagged and GST-tagged full-length human Max protein; purchased Sino Biologicals #12885-H20B
In words: Electrophoretic mobility shift assay (EMSA), Max:Max homodimer binding to DNA. The series is classed as biochemical. Conditions: cell-free EMSA, E-box oligonucleotide.

The target of series [6] is Max (human, UniProt P61244 1-160). In words: EMSA; Max:Max homodimer, no Myc; EMSA: 100 mM KCl, 1 mM DTT, 1 mM EDTA, 50 mM Tris pH 7.4, 5 mM MgCl2, 0.002% NP40, 2% DMSO, room temperature; 200 ng Myc, 350 ng Max, 100 nM DNA, 10 ul; gel run in TBE at 4 C. Conditions: protein: commercial; tags: His and GST; chain copies: 2; label: none (SYBR Green stain); (only one strand given).
Chain of Max (P61244 whole entry): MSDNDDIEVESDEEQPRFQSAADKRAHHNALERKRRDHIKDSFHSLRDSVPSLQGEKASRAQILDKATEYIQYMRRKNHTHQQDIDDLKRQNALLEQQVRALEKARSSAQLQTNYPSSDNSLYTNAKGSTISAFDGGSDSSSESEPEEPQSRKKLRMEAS

T1 sequence (P01106 368-454): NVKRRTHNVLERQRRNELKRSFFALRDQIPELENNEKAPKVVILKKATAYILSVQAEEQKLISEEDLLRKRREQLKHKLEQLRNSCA
T2 sequence (P01106 whole entry): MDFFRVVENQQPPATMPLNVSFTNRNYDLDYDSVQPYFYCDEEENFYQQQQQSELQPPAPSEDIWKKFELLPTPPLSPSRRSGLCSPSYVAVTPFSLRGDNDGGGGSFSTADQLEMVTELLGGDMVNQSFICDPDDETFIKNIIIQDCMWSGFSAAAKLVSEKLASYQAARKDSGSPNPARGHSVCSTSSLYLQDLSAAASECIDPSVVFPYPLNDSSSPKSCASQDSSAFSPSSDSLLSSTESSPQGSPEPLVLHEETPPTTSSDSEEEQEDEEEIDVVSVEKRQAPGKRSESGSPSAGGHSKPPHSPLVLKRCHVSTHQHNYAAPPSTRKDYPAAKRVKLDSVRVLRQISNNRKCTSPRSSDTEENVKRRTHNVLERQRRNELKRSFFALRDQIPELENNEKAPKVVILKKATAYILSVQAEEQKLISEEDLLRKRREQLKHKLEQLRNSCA
T3 sequence (P01106 with tags, fused parts or gaps): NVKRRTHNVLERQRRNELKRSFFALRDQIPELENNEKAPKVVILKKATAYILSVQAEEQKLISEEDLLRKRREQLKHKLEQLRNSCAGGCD

As for `CCc1ccc(/C=C2\SC(=O)N(CCNC(=O)[C@@H]3C[C@@H]4C[C@H]3[C@@H](O)[C@H]4O)C2=O)cc1` [N11], the Kd in series [1] was over 50 µM. Also, the IC50 in series [2] is over 30 µM. In addition, in series [3], the “activity of the individual compounds in the proliferation assay” value (“activity of the individual compounds” for short) is listed as “no activity”.

In the case of `CCc1ccc(/C=C2\SC(=O)N(CC[C@@H]3C[C@H]4C[C@@H]3[C@H](O)[C@@H]4O)C2=O)cc1` [N12], the “effect on Myc:Max complex binding to DNA (gel mobility shift)” value in series [4] is “Neither of the two monomers, E07 or N12, had any noticeable effect”. Also, the dissociation constant (Kd) in series [1] is over 50 µM. For the same molecule, in series [2], the IC50 is over 30 µM. In addition, the “activity of the individual compounds” value in series [3] was “no activity”. In series [5], the “effect on Max:Max complex binding to DNA (gel mobility shift)” value is reported as “Neither of the two monomers, E07 or N12, had any noticeable effect”.

Take `NC(=O)c1ccccc1Nc1ccc([N+](=O)[O-])c2nonc12` [C02, 2-((7-Nitrobenzo[c][1,2,5]oxadiazol-4-yl)amino)benzamide, reference compound]: the IC50 in series [2] is over 30 µM.

In the case of `CCc1ccc(/C=C2\SC(=O)N(CC[C@@H]3C[C@@H]4C=C[C@H]3C4)C2=O)cc1` [C12], in series [1], the Kd was over 50 µM. In addition, the IC50 in series [2] is over 30 µM.

In the case of `CCc1ccc(/C=C2\SC(=O)NC2=O)cc1` [C01, reference compound], the half-inhibitory concentration (IC50) in series [2] was over 30 µM.

`CCc1ccc(/C=C2\SC(=O)N(CCNC(=O)[C@@H]3C[C@H]4C=C[C@H]3C4)C2=O)cc1` [C11]: in series [1], the equilibrium dissociation constant (Kd) was over 50 µM. In series [2], the concentration for half-maximal inhibition (IC50) was over 30 µM.

On to `O=C(NCc1ccc(B(O)O)cc1)c1ccccc1Nc1ccc([N+](=O)[O-])c2nonc12` [E08], for which the Kd in series [1] was 47 ± 9 µM. In series [2], the 50% inhibitory concentration (IC50) was over 30 µM. Also, in series [3], the “activity of the individual compounds” value is given as “no activity”.

As for `O=C(NCc1cccc(B(O)O)c1)c1ccccc1Nc1ccc([N+](=O)[O-])c2nonc12` [E07], the “effect on Myc:Max complex binding to DNA (gel mobility shift)” value in series [4] is recorded as “Neither of the two monomers, E07 or N12, had any noticeable effect”. Also, the equilibrium dissociation constant (Kd) in series [1] stood at 42 ± 10 µM. The half-maximal inhibitory concentration (IC50) in series [2] was 24 ± 7.4 µM. In addition, the “activity of the individual compounds” value in series [3] is listed as “no activity”. For the same molecule, the “effect on Max:Max complex binding to DNA (gel mobility shift)” value in series [5] is reported as “Neither of the two monomers, E07 or N12, had any noticeable effect”.

B1: E-box oligonucleotide (dsDNA)
DNA 1: GATCAGTTGACCACGTGGTCTGGG
DNA 2: CCCAGACCACGTGGTCAACTGATC
For B1, in series [6], the binding result was “binds”.

What is called Kd is the concentration at which binding is half-saturated. As a reminder, the IC50 is the point on the concentration scale where inhibition reaches its midpoint.
